Key:
[1] = system: Antigen (egg albumin)-induced eosinotaxis in lung of guinea pigs; test: Inhibitory effect on topical eosinotaxis in lung induced by antigen (Experimental Example 5); assay type: in vivo, guinea pig (male Hartley)
Experimental: Male Hartley guinea pigs (4 weeks old, Japan SLC) were bred under the homoiothermal (23±2° C.) and homohumidity (55±5%) conditions.
Compound A was dissolved in 20% 2-hydroxypropyl-β-cyclodextrin containing 1% dimethyl sulfoxide to a concentration of 0.01%.
Antigen (egg albumin, Sigma, 10 mg/ml in saline) was nebulized on guinea pigs for 10 minutes with an ultrasonic nebulizer (NE-U12, OMRON CORPORATION). One week later, the antigen was nebulized again in the same manner.
At one week after the second antigen inhalation, mepyramine (Sigma, 10 mg/ml in saline) was intraperitoneally administered by 1 ml/kg. Twenty minutes later, a solution of Compound A (0.01%) or the medium (control) was nebulized for 10 minutes with a jet nebulizer (Nippon Shoji, Ltd.). Immediately thereafter, the antigen (egg albumin, 10 mg/ml) was nebulized for 5 minutes with an ultrasonic nebulizer. Five hours later, the solution of Compound A (0.01%) or the medium was nebulized again for 10 minutes with a jet nebulizer. […] At 24 hours after the antigen nebulizing, the lung was washed three times with physiological saline (10 ml, 37° C.), and the total number of the cells in the collected lung washings was counted by a colter counter (MEK 4200, Nippon Koden). […] The number of eosinophils was calculated from the ratio of existing cells and the total cell number.

[2] = system: Oxazolone-induced ear edema in mice; test: Oxazolone-induced ear edema in mice (oral administration, Experimental Example 8); assay type: in vivo, mouse; settings: for Ear edema (right ear-left ear), mean ± S.D.: sensitized, days 0 to 8, control 17.6 ± 1.1, p < 0.01
Experimental: Mice were sensitized by applying 50 μl of oxazolone solution (50 mg/ml in acetone) to their shaved abdomen on day 0. On day 7, 5 μl of oxazolone was applied to each surface of the right ear. After 24 hours, the right and left ears were cut out with a puncher of 6 mm in diameter and weighed with an electronic reading balance. The difference in weight between the treated ear (right) and untreated ear (left) was taken to reflect the degree of ear edema. Compound A was suspended in 0.5% methylcellulose solution and administered orally (0.1 ml/10 g body weight) on days 0 to 8.

[3] = system: Picryl chloride-induced ear edema in mice; test: Picryl chloride-induced ear edema in mice (Experimental Example 3); assay type: in vivo, mouse; settings: cyclophosphamide +, 10 μl/site intradermal, control 10.8 ± 1.3
Experimental: Cyclophosphamide (150 mg/kg) was administered subcutaneously to mice on day -2. The mice were sensitized twice by applying 50 μl of picryl chloride solution (70 mg/ml in ethanol) to their shaved abdomen on days 0 and 1. On day 13, 10 μl of picryl chloride solution (10 mg/ml in ethanol) was applied to each surface of the right ear. Two days later (on day 15), the right and left ears were cut out with a puncher of 6 mm in diameter and weighed with an electronic reading balance. The difference in weight between the treated (right) ear and the untreated (left) ear was taken as an indicator of edema. […] […] The group treated with cyclophosphamide and picryl chloride was taken as a control, and statistical significance was evaluated by Dunnett's test.

[4] = system: TDI-induced rhinitis in guinea pig; test: Tolylene 2,4-diisocyanate (TDI)-induced rhinitis in guinea pig (Experimental Example 4); assay type: in vivo; settings: for Number of leukocytes, mean ± S.D.: sensitized, control 20.0 ± 2.04, p < 0.01
Experimental: Guinea pigs (three to six per group) were sensitized by applying a mixture of TDI and ethyl acetate (1:7) with cotton buds to both of their nasal cavities under anesthetization with diethyl ether on days 0 to 3 and days 7 to 10. On days 27, 29, 31 and 35, the reaction of the guinea pigs was challenged by applying the same mixture to the nasal cavities in a similar manner as described above. Three hours after the last challenge, the guinea pigs were anesthetized with pentobarbital (30 mg/kg, i.p.), and the nasal cavities were washed with physiological saline. Number of leukocytes in the fluid obtained above was counted with an automatic blood cell counter. Compound A (0.1, 1 or 10 μg/20 μl/site×2/guinea pig) was dissolved in 20% hydroxypropyl-β-cyclodextrin solution containing 1% dimethyl sulfoxide and injected into the both nasal cavities of guinea pigs 1 hour before the last challenge (on day 35).

[5] = system: Oxazolone-induced ear edema in mice; test: Oxazolone-induced ear edema in mice (intradermal administration, Experimental Example 2); assay type: in vivo, mouse
Experimental: […] On day 7, 5 μl of oxazolone solution was applied to each surface of the right ear. After 24 hours (day 8), the right and left ears were cut out with a puncher of 6 mm in diameter and weighed with an electronic reading balance. The difference in weight between the oxazolone-treated ear (right) and untreated ear (left) was taken to reflect the degree of ear edema. Compound A was dissolved in 20% 2-hydroxypropyl-β-cyclodextrinsolution containing 1% dimethyl sulfoxide and injected intradermally into the mouse right ear (25 μl/site) on day 7 (immediately before application of oxazolone).

[6] = system: VCAM-1 expression in HUVECs; test: Inhibitory effect on expression of VCAM-1 in human umbilical vein-derived endothelial cells (HUVECs); assay type: cell-based
Experimental: HUVECs were suspended in 199 medium (Biocell Laboratories, Inc., Rancho Dominguez, Calif. USA) containing 20% fetal calf serum, 20 μg/ml endothelial cell growth factor derived from bovine brain and 100 μg/ml heparin, plated into 96-well microculture plates coated with collagen, and cultured at 37° C. in 5% CO2. When cells were grown to confluence, the cells received tumor necrosis factor-α (100 U/ml) and the test compound A, and cultured for 5 hours. After the cells were washed once with 199 medium, mouse anti-human VCAM-1 monoclonal antibody (2 μg/ml) was added, and the cells were incubated for 1 hour at room temperature. After the cells were washed twice, peroxidase-conjugated anti-mouse immunoglobulin antibody was added, and the cells were incubated for 1 hour at room temperature. After the cells were washed 3 times, a substrate for peroxidase, 2,2'-azino-bis(3-ethylbenzothiazolone-6-sulfonicacid), was added. After the plates were stood for 15 minutes at room temperature, absorbance at 405 nm with a reference wave length of 490 nm was measured with a 96-well microplate reader and was regarded as an indicator of VCAM-1 expression.

[7] = system: CD11b expression in U937 cells; test: Effect on CD11b expression in human histiocytic leukemia cell line U937; assay type: cell-based; settings: U-937, 72 h, PDB 10 ng/ml, 3 days, read-out: Inhibitory effect on CD11b expression (IC50)
Experimental: Effect on the expression of CD11b antigen, which constitutes the a chain of Mac-1, one of the adhesion molecules expressed on the surface of leukocytic cells, was investigated. U937 cells were suspended in RPMI1640 medium containing 20% fetal calf serum, plated with phorbol 12,13-dibutyrate (PDB, 10 ng/ml) and Compound A or Compound B into 96-well filtration plates (30,000 cells/well), and cultured for 3 days at 37° C. in 5% CO2. After the cells were washed once with RPMI1640 medium, rat anti-human CD11b monoclonal antibody (2 μg/ml) was added and the plates were kept for 1 hour on ice. After the cells were washed twice, peroxidase-conjugated anti-rat immunoglobulin antibody (1 μg/ml) was added, and the cells were kept for 1 hour on ice. After the cells were washed 3 times, o-phenylenediamine was added as a substrate for peroxidase. The plates were allowed to stand for 15 minutes at room temperature, and absorbance at 490 nm was measured with a 96-well plate reader. The absorbance was regarded as an indicator of CD11b antigen expression.

[8] = system: Adhesion of guinea pig peritoneal cells to HUVECs; test: Cell adhesion of guinea pig peritoneal cells to human umbilical vein-derived endothelial cells (HUVECs); assay type: cell-based
Experimental: HUVECs were suspended in 199 medium containing 20% fetal calf serum, 20 μg/ml endothelial cell growth factor derived from bovine brain and 100 μg/ml heparin, plated into 96-well microculture plates coated with collagen, and cultured at 37° C. in 5% CO2. When cells were grown to confluence, interleukin 1 (10 U/ml) was added, and the cells were cultured for 24 hours. After the cells were washed once with 199 medium, leukotriene B4 (1 μM), Compound A and guinea pig peritoneal cells [300,000 cells/well, obtained by intraperitoneally injecting 0.1% oyster glycogen (25 ml) and recovering 5 hours later] were added, and the cells were incubated for 30 minutes at 37° C. in 5% CO2. After nonadherent cells were removed by inverting the plates, rose bengal solution (0.25% in phosphate-buffered physiological saline) was added and the plates were kept still for 5 minutes. The cells were washed twice with 199 medium. Ethanol (50% in phosphate-buffered physiological saline) was added (200 μl/well) and the cells were kept still for 30 minutes to allow the leakage of rose bengal dye incorporated into the cells. Absorbance at 520 nm was measured with a 96-well plate reader and the value obtained by subtracting absorbance of the well Containing HUVECs alone was taken as an indicator of cell adhesion.

In the case of COc1ccccc1NC(=O)NC1N=C(c2ccc(Cl)cc2)c2c(sc(C)c2C)-n2c(C)nnc21 (racemic) [Compound A, N-(4-(4-chlorophenyl)-2,3,9-trimethyl-6H-thieno[3,2-f][1,2,4]triazolo[4,3-a][1,4]diazepin-6-yl)-N'-(2-methoxyphenyl)urea], the “Number of eosinophils (×10^6)” value ([1]; 0.01% solution nebulized, lung washings 24 hours after antigen, control 20.7 ± 2.95, p < 0.05) is reported as 8.9 ± 3.7 ×10^6, the “Eosinophil in lung washings (in words)” value ([1]; inhalation, 0.01%) is reported as “significant decrease in eosinophil in lung washings” and the “Inhibition of ear edema (in words)” value ([2]; oral administration) is reported as “inhibited ear edema in mice in a dose-dependent manner”. For the same compound, the “Ear edema (right ear-left ear), mean ± S.D.” value (“Ear edema (right ear-left ear)” for short) ([2]; oral 10 mg/kg/day) was 16.0 ± 0.7 mg, the “Ear edema (right ear-left ear)” value ([2]; oral 30 mg/kg/day) was 15.4 ± 0.5 mg and the “Ear edema (right ear-left ear)” value ([2]; oral 100 mg/kg/day) was 14.4 ± 0.5 mg. The “Ear edema (right ear-left ear)” value [3] was 7.8 ± 0.4 mg, the “Inhibition of leukocyte infiltration (in words)” value ([4]; administration into the nasal cavity) was “inhibited the leukocyte infiltration in TDI-induced guinea pig rhinitis dose-dependently” and the “Number of leukocytes, mean ± S.D.” value ([4]; 0.1 μg/site into nasal cavities) was 12.7 ± 1.41 ×100 cells/μl. For the same compound, the “Number of leukocytes, mean ± S.D.” value ([4]; 1 μg/site into nasal cavities) was 7.1 ± 1.19 ×100 cells/μl, the “Number of leukocytes, mean ± S.D.” value ([4]; 10 μg/site into nasal cavities) was 2.8 ± 0.17 ×100 cells/μl and the “Inhibition of ear edema (in words)” value ([5]; intradermal administration) was “inhibited ear edema in sensitized or unsensitized mice in a dose-dependent manner”. The “Ear edema (right ear-left ear)” value ([5]; sensitized, 1 μg/site intradermal, control 16.8 ± 0.7, p < 0.01) was 15.0 ± 0.6 mg, the “Ear edema (right ear-left ear)” value ([5]; sensitized, 10 μg/site intradermal, control 16.8 ± 0.7, p < 0.01) was 13.3 ± 0.7 mg and the “Ear edema (right ear-left ear)” value ([5]; unsensitized, 1 μg/site intradermal, control 7.7 ± 1.6, p < 0.05) was 5.7 ± 1.1 mg. The “Ear edema (right ear-left ear)” value ([5]; unsensitized, 10 μg/site intradermal, control 7.7 ± 1.6, p < 0.05) was 5.3 ± 0.7 mg, the “Inhibition of expression of VCAM-1 on HUVEC (in words)” value [6] was “inhibited expression of VCAM-1 on HUVEC in a concentration-dependent manner” and the inhibition at 1 pM ([6]; Homo sapiens, HUVEC, Compound A 1 pM, TNF-α 100 U/ml, 5 hours) was 19.7%. The inhibition at 10 pM ([6]; Homo sapiens, HUVEC, Compound A 10 pM, TNF-α 100 U/ml, 5 hours) was 67.1%, the inhibition at 0.0001 µM ([6]; Homo sapiens, HUVEC, Compound A 100 pM, TNF-α 100 U/ml, 5 hours) was 82.3% and the inhibition at 0.001 µM ([6]; Homo sapiens, HUVEC, Compound A 1000 pM, TNF-α 100 U/ml, 5 hours) was 80.8%. The IC50 [7] was 250 nM, the “Inhibition of adhesion of guinea pig peritoneal cells (in words)” value [8] was “inhibited adhesion of guinea pig peritoneal cells to vascular endothelial cells in a concentration-dependent manner” and the inhibition at 0.01 µM ([8]; Cavia porcellus, HUVEC, Compound A 0.01 μM, leukotriene B4 1 μM) was -4.7%. It also gave an inhibition at 0.1 µM ([8]; Cavia porcellus, HUVEC, Compound A 0.1 μM, leukotriene B4 1 μM) of 32.6%, an inhibition at 1 µM ([8]; Cavia porcellus, HUVEC, Compound A 1 μM, leukotriene B4 1 μM) of 95.5% and an inhibition at 10 µM ([8]; Cavia porcellus, HUVEC, Compound A 10 μM, leukotriene B4 1 μM) of 97.9%. For the same compound, the IC50 ([8]; Cavia porcellus, HUVEC, leukotriene B4 1 μM, read-out: concentration necessary for 50% inhibition (IC50 values, μM) of adhesion) was ~0.2 µM, the “Cell adhesion (absorbance at 520 nm)” value ([8]; Compound A 0.01 μM, leukotriene B4 1 μM) was 0.222 absorbance at 520 nm and the “Cell adhesion (absorbance at 520 nm)” value ([8]; Compound A 0.1 μM, leukotriene B4 1 μM) was 0.169 absorbance at 520 nm. For the same compound, the “Cell adhesion (absorbance at 520 nm)” value ([8]; Compound A 1 μM, leukotriene B4 1 μM) was 0.080 absorbance at 520 nm and the “Cell adhesion (absorbance at 520 nm)” value ([8]; Compound A 10 μM, leukotriene B4 1 μM) was 0.077 absorbance at 520 nm.

With COc1ccccc1NC(=O)NC1N=C(c2ccc(Cl)cc2)c2c(sc(C)c2C)-n2c(C)nnc21 (single isomer, unassigned; (-)) [Compound B, (-)-N-(4-(4-chlorophenyl)-2,3,9-trimethyl-6H-thieno[3,2-f][1,2,4]triazolo[4,3-a][1,4]diazepin-6-yl)-N'-(2-methoxyphenyl)urea] the IC50 [7] was 63 nM.

Reference: US5721231A, “Thienotriazolodiazepine compound and pharmaceutical use thereof” (Yoshitomi Pharmaceutical Industries, Ltd., priority 1993, dated 1998)
